PubChem BioAssay (NCI)
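The compound was tested at five concentrations on cells cultured in 96-well plates, with a 48-hour exposure period. GI50 = concentration required for 50% inhibition of growth. TGI denotes the concentration required for complete inhibition of growth.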

Experiments:
Experiment in all cases: NCI anticancer screen, dose series, 48 h
OVCAR-4 ovarian = system: OVCAR-4 ovarian
NCI-H226 lung = system: NCI-H226 lung
HCC-2998 colon = system: HCC-2998 colon
RPMI-8226 leukemia = system: RPMI-8226 leukemia
DU-145 prostate = system: DU-145 prostate
SNB-75 CNS = system: SNB-75 CNS
CCRF-CEM leukemia = system: CCRF-CEM leukemia
NCI-H23 lung = system: NCI-H23 lung
SW-620 colon = system: SW-620 colon
SK-MEL-28 melanoma = system: SK-MEL-28 melanoma
786-0 renal = system: 786-0 renal
MDA-MB-231 breast = system: MDA-MB-231 breast
K-562 leukemia = system: K-562 leukemia
SF-295 CNS = system: SF-295 CNS
A549 NSCLC = system: A549 NSCLC
SR leukemia = system: SR leukemia
SK-MEL-5 melanoma = system: SK-MEL-5 melanoma
HT29 colon = system: HT29 colon
SN12C renal = system: SN12C renal
COLO 205 colon = system: COLO 205 colon
MOLT-4 leukemia = system: MOLT-4 leukemia
HS 578T breast = system: HS 578T breast
SK-MEL-2 melanoma = system: SK-MEL-2 melanoma
U251 CNS = system: U251 CNS
UACC-62 melanoma = system: UACC-62 melanoma
NCI-H460 lung = system: NCI-H460 lung
OVCAR-3 ovarian = system: OVCAR-3 ovarian
T-47D breast = system: T-47D breast
BT-549 breast = system: BT-549 breast
MALME-3M melanoma = system: MALME-3M melanoma
IGROV1 ovarian = system: IGROV1 ovarian
SK-OV-3 ovarian = system: SK-OV-3 ovarian
SNB-19 CNS = system: SNB-19 CNS
SF-539 CNS = system: SF-539 CNS
NCI/ADR-RES ovarian = system: NCI/ADR-RES ovarian
NCI-H522 lung = system: NCI-H522 lung
HCT-15 colon = system: HCT-15 colon
UACC-257 melanoma = system: UACC-257 melanoma
MCF7 breast = system: MCF7 breast
OVCAR-5 ovarian = system: OVCAR-5 ovarian
A498 renal = system: A498 renal
UO-31 renal = system: UO-31 renal
LOX IMVI melanoma = system: LOX IMVI melanoma
TK-10 renal = system: TK-10 renal
SF-268 CNS = system: SF-268 CNS
M14 melanoma = system: M14 melanoma
MDA-MB-435 = system: MDA-MB-435
RXF 393 renal = system: RXF 393 renal
CAKI-1 renal = system: CAKI-1 renal
OVCAR-8 ovarian = system: OVCAR-8 ovarian
EKVX NSCLC = system: EKVX NSCLC
HL-60(TB) leukemia = system: HL-60(TB) leukemia
HOP-92 NSCLC = system: HOP-92 NSCLC
KM12 colon = system: KM12 colon
HOP-62 NSCLC = system: HOP-62 NSCLC
HCT-116 colon = system: HCT-116 colon
PC-3 prostate = system: PC-3 prostate
ACHN renal = system: ACHN renal

In the case of C#C[C@]1(O)CC[C@H]2[C@@H]3CC=C4c5sc(-c6ccc(C)cc6)nc5CC[C@]4(C)[C@H]3CC[C@@]21C, the GI50 (OVCAR-4 ovarian) is reported as greater than 100 µM, the TGI (OVCAR-4 ovarian) is reported as greater than 100 µM and the GI50 (NCI-H226 lung) is reported as greater than 100 µM. The TGI (NCI-H226 lung) was greater than 100 µM, the GI50 (HCC-2998 colon) was greater than 100 µM and the TGI (HCC-2998 colon) was greater than 100 µM. For the same compound, the GI50 (RPMI-8226 leukemia) was 1.91 µM, the TGI (RPMI-8226 leukemia) was greater than 100 µM and the GI50 (DU-145 prostate) was greater than 100 µM. For the same compound, the TGI (DU-145 prostate) was greater than 100 µM, the GI50 (SNB-75 CNS) was 6.29 µM and the TGI (SNB-75 CNS) was greater than 100 µM. For the same compound, the GI50 (CCRF-CEM leukemia) was greater than 100 µM, the TGI (CCRF-CEM leukemia) was greater than 100 µM and the GI50 (NCI-H23 lung) was greater than 100 µM. It also gave a TGI (NCI-H23 lung) greater than 100 µM, a GI50 (SW-620 colon) greater than 100 µM and a TGI (SW-620 colon) greater than 100 µM. The GI50 (SK-MEL-28 melanoma) was greater than 100 µM, the TGI (SK-MEL-28 melanoma) was greater than 100 µM and the GI50 (786-0 renal) was 3.41 µM. It also gave a TGI (786-0 renal) of 61.6 µM, a GI50 (MDA-MB-231 breast) greater than 100 µM and a TGI (MDA-MB-231 breast) greater than 100 µM. For the same compound, the GI50 (K-562 leukemia) was 9.35 µM, the TGI (K-562 leukemia) was greater than 100 µM and the GI50 (SF-295 CNS) was 2.69 µM. It also gave a TGI (SF-295 CNS) greater than 100 µM, a GI50 (A549 NSCLC) of 95.5 µM and a TGI (A549 NSCLC) greater than 100 µM. The GI50 (SR leukemia) was greater than 100 µM, the TGI (SR leukemia) was greater than 100 µM and the GI50 (SK-MEL-5 melanoma) was greater than 100 µM. It also gave a TGI (SK-MEL-5 melanoma) greater than 100 µM, a GI50 (HT29 colon) of 24.5 µM and a TGI (HT29 colon) greater than 100 µM. The GI50 (SN12C renal) was greater than 100 µM, the TGI (SN12C renal) was greater than 100 µM and the GI50 (COLO 205 colon) was greater than 100 µM. The TGI (COLO 205 colon) was greater than 100 µM, the GI50 (MOLT-4 leukemia) was 45.2 µM and the TGI (MOLT-4 leukemia) was greater than 100 µM. For the same compound, the GI50 (HS 578T breast) was 4.17 µM, the TGI (HS 578T breast) was greater than 100 µM and the GI50 (SK-MEL-2 melanoma) was greater than 100 µM. For the same compound, the TGI (SK-MEL-2 melanoma) was greater than 100 µM, the GI50 (U251 CNS) was 61 µM and the TGI (U251 CNS) was greater than 100 µM. For the same compound, the GI50 (UACC-62 melanoma) was greater than 100 µM, the TGI (UACC-62 melanoma) was greater than 100 µM and the GI50 (NCI-H460 lung) was greater than 100 µM. It also gave a TGI (NCI-H460 lung) greater than 100 µM, a GI50 (OVCAR-3 ovarian) greater than 100 µM and a TGI (OVCAR-3 ovarian) greater than 100 µM. For the same compound, the GI50 (T-47D breast) was 93.7 µM, the TGI (T-47D breast) was greater than 100 µM and the GI50 (BT-549 breast) was 25.9 µM. The TGI (BT-549 breast) was greater than 100 µM, the GI50 (MALME-3M melanoma) was greater than 100 µM and the TGI (MALME-3M melanoma) was greater than 100 µM. It also gave a GI50 (IGROV1 ovarian) greater than 100 µM, a TGI (IGROV1 ovarian) greater than 100 µM and a GI50 (SK-OV-3 ovarian) greater than 100 µM. The TGI (SK-OV-3 ovarian) was greater than 100 µM, the GI50 (SNB-19 CNS) was greater than 100 µM and the TGI (SNB-19 CNS) was greater than 100 µM. The GI50 (SF-539 CNS) was 2.31 µM, the TGI (SF-539 CNS) was greater than 100 µM and the GI50 (NCI/ADR-RES ovarian) was greater than 100 µM. The TGI (NCI/ADR-RES ovarian) was greater than 100 µM, the GI50 (NCI-H522 lung) was greater than 100 µM and the TGI (NCI-H522 lung) was greater than 100 µM. The GI50 (HCT-15 colon) was 12.8 µM, the TGI (HCT-15 colon) was greater than 100 µM and the GI50 (UACC-257 melanoma) was greater than 100 µM. The TGI (UACC-257 melanoma) was greater than 100 µM, the GI50 (MCF7 breast) was 46.8 µM and the TGI (MCF7 breast) was greater than 100 µM. It also gave a GI50 (OVCAR-5 ovarian) greater than 100 µM, a TGI (OVCAR-5 ovarian) greater than 100 µM and a GI50 (A498 renal) greater than 100 µM. It also gave a TGI (A498 renal) greater than 100 µM, a GI50 (UO-31 renal) of 28.9 µM and a TGI (UO-31 renal) greater than 100 µM. It also gave a GI50 (LOX IMVI melanoma) greater than 100 µM, a TGI (LOX IMVI melanoma) greater than 100 µM and a GI50 (TK-10 renal) greater than 100 µM. It also gave a TGI (TK-10 renal) greater than 100 µM, a GI50 (SF-268 CNS) greater than 100 µM and a TGI (SF-268 CNS) greater than 100 µM. It also gave a GI50 (M14 melanoma) of 30.6 µM, a TGI (M14 melanoma) greater than 100 µM and a GI50 (MDA-MB-435) greater than 100 µM. The TGI (MDA-MB-435) was greater than 100 µM, the GI50 (RXF 393 renal) was 4.29 µM and the TGI (RXF 393 renal) was greater than 100 µM. It also gave a GI50 (CAKI-1 renal) of 60.9 µM, a TGI (CAKI-1 renal) greater than 100 µM and a GI50 (OVCAR-8 ovarian) greater than 100 µM. For the same compound, the TGI (OVCAR-8 ovarian) was greater than 100 µM, the GI50 (EKVX NSCLC) was greater than 100 µM and the TGI (EKVX NSCLC) was greater than 100 µM. For the same compound, the GI50 (HL-60(TB) leukemia) was 35.6 µM, the TGI (HL-60(TB) leukemia) was greater than 100 µM and the GI50 (HOP-92 NSCLC) was 36.5 µM. It also gave a TGI (HOP-92 NSCLC) greater than 100 µM, a GI50 (KM12 colon) greater than 100 µM and a TGI (KM12 colon) greater than 100 µM. It also gave a GI50 (HOP-62 NSCLC) greater than 100 µM, a TGI (HOP-62 NSCLC) greater than 100 µM and a GI50 (HCT-116 colon) of 18.3 µM. For the same compound, the TGI (HCT-116 colon) was greater than 100 µM, the GI50 (PC-3 prostate) was 26.2 µM and the TGI (PC-3 prostate) was greater than 100 µM. It also gave a GI50 (ACHN renal) greater than 100 µM and a TGI (ACHN renal) greater than 100 µM.
